# Data from article PMC10582325 (Frontiers in Pharmacology, 2023).
# pIC50: −log10 of the molar value. Where two headings read alike, the source gives them in different places.
# How the values were obtained:
# [1] = target: T1, CYP2A6 (Homo sapiens, UniProt P11509); experiment: Direct CYP inhibition in human liver microsomes with marker probe substrates; settings: read-out: Inhibition, IC50; HLM, CYP2A6 probe substrate
# T1 sequence (P11509 1-494): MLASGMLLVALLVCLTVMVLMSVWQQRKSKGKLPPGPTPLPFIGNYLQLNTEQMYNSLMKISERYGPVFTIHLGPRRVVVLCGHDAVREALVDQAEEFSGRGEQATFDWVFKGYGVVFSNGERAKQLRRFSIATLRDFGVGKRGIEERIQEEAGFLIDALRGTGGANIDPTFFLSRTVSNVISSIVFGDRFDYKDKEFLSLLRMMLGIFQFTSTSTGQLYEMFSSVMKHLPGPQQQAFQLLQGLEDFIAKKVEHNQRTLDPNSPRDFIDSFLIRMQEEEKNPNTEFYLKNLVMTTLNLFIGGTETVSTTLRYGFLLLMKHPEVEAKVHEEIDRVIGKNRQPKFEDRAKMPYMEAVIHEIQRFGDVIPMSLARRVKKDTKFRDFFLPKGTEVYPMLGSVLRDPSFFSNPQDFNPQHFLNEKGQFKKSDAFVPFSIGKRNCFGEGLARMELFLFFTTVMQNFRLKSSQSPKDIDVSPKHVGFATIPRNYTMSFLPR
# [2] = Plasma concentration 3 h post dose in murine model of tuberculosis; type: in vivo, BALB/c mice infected with M. tuberculosis H37Rv; settings: TB model
# [3] = Steady-state plasma pharmacokinetics of BDQ, M2 and TBI-166 in BALB/c mice; settings: for AUC(0-t): Plasma; for t 1/2: after last dose
# [4] = target: CYP3A4 (Homo sapiens, UniProt P08684); settings: for pIC50: read-out: Inhibition, IC50, HLM
# Chain of CYP3A4 (P08684 2-503): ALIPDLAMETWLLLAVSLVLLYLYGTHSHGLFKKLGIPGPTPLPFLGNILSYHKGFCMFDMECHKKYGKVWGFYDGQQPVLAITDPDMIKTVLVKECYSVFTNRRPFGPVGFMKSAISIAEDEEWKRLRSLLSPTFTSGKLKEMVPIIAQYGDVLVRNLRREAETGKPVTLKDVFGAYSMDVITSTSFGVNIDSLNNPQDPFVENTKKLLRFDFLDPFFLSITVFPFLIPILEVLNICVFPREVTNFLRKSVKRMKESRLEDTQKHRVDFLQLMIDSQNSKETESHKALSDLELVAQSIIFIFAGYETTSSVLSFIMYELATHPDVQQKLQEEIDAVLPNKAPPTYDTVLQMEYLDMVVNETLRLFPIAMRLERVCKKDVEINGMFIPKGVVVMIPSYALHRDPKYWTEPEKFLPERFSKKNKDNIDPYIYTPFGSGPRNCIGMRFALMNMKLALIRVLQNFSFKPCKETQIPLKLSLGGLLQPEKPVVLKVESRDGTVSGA
# [5] = target: CYP2D6 (Homo sapiens, UniProt P10635); experiment: Direct CYP inhibition in human liver microsomes with marker probe substrates; settings: read-out: Inhibition, IC50; HLM, CYP2D6 probe substrate
# Chain of CYP2D6 (P10635 whole entry): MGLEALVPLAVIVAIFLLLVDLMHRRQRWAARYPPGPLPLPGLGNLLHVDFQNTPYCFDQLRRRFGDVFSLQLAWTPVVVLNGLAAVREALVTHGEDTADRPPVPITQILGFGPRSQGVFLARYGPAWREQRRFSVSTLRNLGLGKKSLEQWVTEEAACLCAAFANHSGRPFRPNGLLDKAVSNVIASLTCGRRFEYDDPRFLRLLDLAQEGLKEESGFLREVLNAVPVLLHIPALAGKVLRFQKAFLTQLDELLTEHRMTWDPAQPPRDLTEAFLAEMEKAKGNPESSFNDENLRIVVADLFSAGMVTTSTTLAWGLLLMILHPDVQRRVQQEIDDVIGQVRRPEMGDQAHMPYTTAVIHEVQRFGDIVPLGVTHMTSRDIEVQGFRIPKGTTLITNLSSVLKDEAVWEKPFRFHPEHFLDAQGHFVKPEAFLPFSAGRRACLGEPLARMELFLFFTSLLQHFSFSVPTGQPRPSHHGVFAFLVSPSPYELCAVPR
# [6] = target: CYP2E1 (Homo sapiens, UniProt P05181); experiment: as above; settings: read-out: Inhibition, IC50; HLM, CYP2E1 probe substrate
# Chain of CYP2E1 (P05181 whole entry): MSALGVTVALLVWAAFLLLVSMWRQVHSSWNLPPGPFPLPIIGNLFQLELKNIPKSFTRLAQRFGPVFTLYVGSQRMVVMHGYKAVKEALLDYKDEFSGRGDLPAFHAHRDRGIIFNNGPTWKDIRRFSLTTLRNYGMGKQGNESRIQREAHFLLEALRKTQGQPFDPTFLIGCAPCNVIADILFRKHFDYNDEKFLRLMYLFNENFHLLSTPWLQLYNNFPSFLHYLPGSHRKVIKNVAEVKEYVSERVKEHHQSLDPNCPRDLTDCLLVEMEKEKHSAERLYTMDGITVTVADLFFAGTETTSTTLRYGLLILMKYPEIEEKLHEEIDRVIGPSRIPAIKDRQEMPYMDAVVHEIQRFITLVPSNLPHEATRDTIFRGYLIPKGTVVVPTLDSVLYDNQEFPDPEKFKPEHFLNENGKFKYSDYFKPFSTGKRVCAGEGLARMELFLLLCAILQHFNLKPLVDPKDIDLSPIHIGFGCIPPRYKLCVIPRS
# [7] = Lung and spleen tissue exposure in BALB/c mice
# [8] = Stability of BDQ, M2 and TBI-166 in mice plasma (LC-MS/MS validation)
# [9] = target: CYP2C19 (Homo sapiens, UniProt P33261); experiment: Direct CYP inhibition in human liver microsomes with marker probe substrates; settings: read-out: Inhibition, IC50; HLM, CYP2C19 probe substrate
# Chain of CYP2C19 (P33261 whole entry): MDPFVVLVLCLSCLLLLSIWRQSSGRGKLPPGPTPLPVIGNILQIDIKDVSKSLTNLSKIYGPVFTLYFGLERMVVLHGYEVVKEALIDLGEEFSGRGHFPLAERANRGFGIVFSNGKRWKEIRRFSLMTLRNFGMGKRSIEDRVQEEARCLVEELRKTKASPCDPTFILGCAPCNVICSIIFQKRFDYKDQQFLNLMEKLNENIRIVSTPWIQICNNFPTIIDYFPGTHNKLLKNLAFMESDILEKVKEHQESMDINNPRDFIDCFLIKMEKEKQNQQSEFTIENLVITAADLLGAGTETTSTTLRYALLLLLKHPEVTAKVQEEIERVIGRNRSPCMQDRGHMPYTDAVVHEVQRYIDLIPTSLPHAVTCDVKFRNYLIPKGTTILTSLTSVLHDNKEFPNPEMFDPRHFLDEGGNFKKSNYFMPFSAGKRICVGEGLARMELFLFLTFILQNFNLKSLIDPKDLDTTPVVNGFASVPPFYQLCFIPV
# [10] = target: CYP2C9 (Homo sapiens, UniProt P11712); experiment: as above; settings: read-out: Inhibition, IC50; HLM, CYP2C9 probe substrate
# Chain of CYP2C9 (P11712 whole entry): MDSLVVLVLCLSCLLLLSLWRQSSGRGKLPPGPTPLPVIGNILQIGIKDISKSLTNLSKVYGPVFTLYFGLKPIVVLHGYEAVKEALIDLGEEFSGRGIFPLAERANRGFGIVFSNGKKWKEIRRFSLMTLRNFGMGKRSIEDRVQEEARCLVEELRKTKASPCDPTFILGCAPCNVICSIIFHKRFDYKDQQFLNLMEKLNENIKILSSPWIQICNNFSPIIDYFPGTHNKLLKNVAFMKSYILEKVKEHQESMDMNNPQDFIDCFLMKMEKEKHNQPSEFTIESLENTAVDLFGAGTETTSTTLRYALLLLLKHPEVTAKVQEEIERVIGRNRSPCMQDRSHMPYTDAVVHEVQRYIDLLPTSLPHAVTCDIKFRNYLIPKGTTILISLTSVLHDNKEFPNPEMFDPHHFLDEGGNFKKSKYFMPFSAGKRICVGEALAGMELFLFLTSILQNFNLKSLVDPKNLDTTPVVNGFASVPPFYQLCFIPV
# [11] = plasma, TBI-166 group (TBI-166 alone)
compound,measurement,setting,value
"COc1ncccc1Nc1cc2nc3ccccc3n(-c3ccc(OC(F)(F)F)cc3)c-2cc1=NC1CCC(OC)CC1 (stereo not drawn) [TBI-166, Pyrifazimine]",pIC50,[1],5.86
same,Mean plasma concentration at three hours after oral administration,"[2]; BDQ + TBI-166 group, W4",1383.02 ± 411.59 ng/mL
same,Mean plasma concentration at three hours after oral administration,"[2]; BDQ + TBI-166 group, W8",1330.40 ± 133.72 ng/mL
same,Mean plasma concentration at three hours after oral administration,"[2]; BDQ group (25 mg/kg), W4, LLOQ 5, 5, 15 ng/mL for BDQ, TBI-166, M2",<LLOQ
same,Mean plasma concentration at three hours after oral administration,"[2]; BDQ group (25 mg/kg), W8, LLOQ 5, 5, 15 ng/mL for BDQ, TBI-166, M2",<LLOQ
same,Mean plasma concentration at three hours after oral administration,"[2]; TBI-166 group (20 mg/kg), W4, LLOQ 5, 5, 15 ng/mL for BDQ, TBI-166, M2",1375.79 ± 123.54 ng/mL
same,Mean plasma concentration at three hours after oral administration,"[2]; TBI-166 group (20 mg/kg), W8, LLOQ 5, 5, 15 ng/mL for BDQ, TBI-166, M2",1323.76 ± 311.89 ng/mL
same,"C max, p.o. dosage","[3]; Cmax observed at human equivalent dose of 20 mg, plasma, mice",700 ng/mL
same,AUC(0-t),[3]; BDQ + TBI-166 group (Table S4),62050 ± 2520 ng·h/mL
same,AUC(0-t),[3]; TBI-166 group (Table S4),68950 ± 4840 ng·h/mL
same,AUC(0-last),"[3]; plasma, BDQ + TBI-166 group","62,050 ± 2,519 h·ng/mL"
same,AUC(0-last) as percent of single-drug group,"[3]; plasma, BDQ + TBI-166 group",91%
same,AUC(0-∞),"[3]; plasma, BDQ + TBI-166 group","103,720 h·ng/mL"
same,C max,"[3]; plasma, BDQ + TBI-166 group",709.45 ± 71.13 ng/mL
same,MRT(0-t),"[3]; plasma, BDQ + TBI-166 group",65.18 h
same,T max,"[3]; plasma, BDQ + TBI-166 group",1 h
same,t 1/2,"[3]; plasma, BDQ + TBI-166 group (BDQ 25 mg/kg + TBI-166 20 mg/kg, gavage QD 21 days)",132.67 h
same,t 1/2,"[3]; plasma, TBI-166 group (TBI-166 20 mg/kg alone, gavage QD 21 days)",142.03 h
same,AUC(0-last),[3]; [11],"68,953 ± 4,843 h·ng/mL"
same,AUC(0-∞),[3]; [11],"119,114 h·ng/mL"
same,C max,[3]; [11],"1,043.84 ± 92.53 ng/mL"
same,MRT(0-t),[3]; [11],66.37 h
same,T max,[3]; [11],1 h
same,AUC(0-last) as percent of single-drug group,"[3]; plasma, TBI-166 group (reference)",100%
same,Cmax,"[3]; read-out: C max, p.o. dosage, Cmax observed at human equivalent dose of 20 mg, plasma, mice",1190 nM
same,inhibitor strength class for CYP3A4 pathway,[4]; based on IC50 with testosterone,moderate (1 µM < IC50 < 10 µM)
same,pIC50,[4]; CYP3A4 MDZ (midazolam as probe substrate),4.76
same,pIC50,[4]; CYP3A4 TEST (testosterone as probe substrate),5.58
same,pIC50,[5],5.80
same,pIC50,[6],6.03
same,AUC(0-t),"[7]; Lung, BDQ + TBI-166 group",321.07 ± 52.91 µg·h/g
same,tissue-to-plasma ratio (Kp),"[7]; Lung, BDQ + TBI-166 group",5.17
same,AUC(0-t),"[7]; Lung, TBI-166 group",378.66 ± 104.67 µg·h/g
same,tissue-to-plasma ratio (Kp),"[7]; Lung, TBI-166 group",5.49
same,AUC(0-t),"[7]; Spleen, BDQ + TBI-166 group",483.54 ± 94.75 µg·h/g
same,tissue-to-plasma ratio (Kp),"[7]; Spleen, BDQ + TBI-166 group",7.79
same,AUC(0-t),"[7]; Spleen, TBI-166 group",296.09 ± 27.68 µg·h/g
same,tissue-to-plasma ratio (Kp),"[7]; Spleen, TBI-166 group",4.29
same,exposure (AUC0-t) with vs without coadministration,[7]; lungs,similar
same,increase of exposure (AUC0-t) after coadministration of BDQ with TBI-166,[7]; spleens,1.5 fold
same,"Stability in mice plasma, RE","[8]; 4℃ for 24 h, 15 ng/mL",-15.07%
same,"Stability in mice plasma, RE","[8]; 4℃ for 24 h, 75 ng/mL",1.87%
same,"Stability in mice plasma, RE","[8]; 4℃ for 24 h, 750 ng/mL",-12.65%
same,"Stability in mice plasma, RE","[8]; -40℃ for 7 d, 15 ng/mL",-2.20%
same,"Stability in mice plasma, RE","[8]; -40℃ for 7 d, 75 ng/mL",-1.01%
same,"Stability in mice plasma, RE","[8]; -40℃ for 7 d, 750 ng/mL",-13.53%
same,"Stability in mice plasma, RE","[8]; Freeze-thaw three cycles, 15 ng/mL",-14.27%
same,"Stability in mice plasma, RE","[8]; Freeze-thaw three cycles, 75 ng/mL",-5.39%
same,"Stability in mice plasma, RE","[8]; Freeze-thaw three cycles, 750 ng/mL",-13.50%
same,"Stability in mice plasma, RE","[8]; In auto-sample for 24 h, 15 ng/mL",18.87%
same,"Stability in mice plasma, RE","[8]; In auto-sample for 24 h, 75 ng/mL",-12.61%
same,"Stability in mice plasma, RE","[8]; In auto-sample for 24 h, 750 ng/mL",-7.77%
same,"Stability in mice plasma, RE","[8]; Room temperature for 24 h, 15 ng/mL",-6.20%
same,"Stability in mice plasma, RE","[8]; Room temperature for 24 h, 75 ng/mL",-6.81%
same,"Stability in mice plasma, RE","[8]; Room temperature for 24 h, 750 ng/mL",-10.81%
same,pIC50,[9],5.35
same,pIC50,[10],5.26
